The values that follow come from ChEMBL document CHEMBL5532762, “Potential of covalently linked tamoxifen hybrids for cancer treatment: recent update” (RSC Med Chem, 2024).

SMILES strings stand for the structures.

Series [1] relates to MCF7. Nature of the series: Antiproliferative activity against human MCF7 cells assessed as reduction in cell growth incubated for 24 hrs by MTT assay. The following applies: MCF7, 24 h.
Series [2] concerns MDA-MB-231. Nature of the series: Antiproliferative activity against human MDA-MB-231 cells assessed as reduction in cell growth incubated for 24 hrs by MTT assay. The following applies: MDA-MB-231, 24 h.
A further series relates to SiHa. Briefly: Growth inhibition of human SiHa cells measured after 48 hrs by SRB assay. Format: functional.
Series [3] can be described thus: Aqueous solubility of the compound. The class given is physicochemical. The following applies: water (aqueous).
In series [4] the test system is MCF7. Briefly: Antiproliferative activity against human MCF7 cells assessed as reduction in cell viability measured after 72 hrs by MTT assay. The class given is functional, cell-based. The note with it: MCF7, 72 h.
In series [5] the test system is MCF7. Briefly: Antiproliferative activity against human MCF7 cells assessed as reduction in cell growth measured after 72 hrs by alamar blue analysis. The following applies: MCF7, 72 h.
Another series addresses Estrogen receptor beta (Homo sapiens, UniProt Q92731). Briefly: Inhibition of ERbeta (unknown origin) by renilla luciferase assay.
Series [6] has as its system MDA-MB-231. Nature of the series: Growth inhibition of human MDA-MB-231 cells measured after 48 hrs by SRB assay. Format: functional.
In series [7] the test system is MCF7. Nature of the series: Antiproliferative activity against human MCF7 cells assessed as cell growth inhibition incubated for 72 hrs by MTT assay. The note with it: MCF7, 72 h.

Estrogen receptor beta, sequence (Q92731 whole entry): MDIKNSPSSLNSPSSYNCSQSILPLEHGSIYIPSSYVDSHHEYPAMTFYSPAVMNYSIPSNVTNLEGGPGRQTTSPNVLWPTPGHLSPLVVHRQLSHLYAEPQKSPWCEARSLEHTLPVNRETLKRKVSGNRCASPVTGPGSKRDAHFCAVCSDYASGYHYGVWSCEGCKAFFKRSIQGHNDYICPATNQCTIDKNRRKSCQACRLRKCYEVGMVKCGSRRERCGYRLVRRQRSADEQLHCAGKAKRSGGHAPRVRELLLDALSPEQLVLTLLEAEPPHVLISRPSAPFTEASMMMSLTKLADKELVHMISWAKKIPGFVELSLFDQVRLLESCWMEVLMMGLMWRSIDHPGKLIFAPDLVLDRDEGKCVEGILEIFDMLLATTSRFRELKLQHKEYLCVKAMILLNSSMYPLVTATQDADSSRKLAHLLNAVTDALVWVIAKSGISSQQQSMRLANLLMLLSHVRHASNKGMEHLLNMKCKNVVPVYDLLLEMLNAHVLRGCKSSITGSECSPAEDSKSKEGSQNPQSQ

For `CCC(=C(c1ccc(O)cc1)c1ccc(OCCN(C)C(=O)/C(=C/c2ccc(OC)c(O)c2)c2cc(OC)c(OC)c(OC)c2)cc1)c1ccc(O)cc1`, the IC50 with MCF7 [1] is 5 nM; with MDA-MB-231 [2], 2480 nM. As to `c1ccc(/C(Cn2cncn2)=C(/c2ccccc2)c2ccc(OCCN3CCN(c4ncccn4)CC3)cc2)cc1`, the GI50 with SiHa was determined as 120 nM.

In turn, `CC/C(=C(/c1ccc(OCCN(C)C)cc1)c1ccc(OC(=O)N(C)CCN(C)C(=O)OCc2cc(OC)c(OCC(=O)NCCN)cc2[N+](=O)[O-])cc1)c1ccccc1` returned a solubility in [3] of at least 20 µg/mL. As to `CC/C(=C(\c1ccccc1)c1ccc(OCCN(C)CCCCCC(=O)NCCc2c[nH]c3ccc(OC)cc23)cc1)c1ccccc1`, the IC50 in the series on MCF7 [4] was determined as 80000 nM. In the case of `CC/C(=C(\c1ccc(O)cc1)c1ccc(OCCN(C)C(=O)CCC(=O)Oc2cc(/C=C\c3cc(OC)c(OC)c(OC)c3)ccc2OC)cc1)c1ccccc1`, in the series with MCF7 [5], the IC50 was 5.7 nM. Take `CC/C(=C(\c1ccccc1)c1ccc(OCCN(C)CCCCC(=O)NCCc2c[nH]c3ccc(OC)cc23)cc1)c1ccccc1`: in the series with MCF7 [4], the IC50 stood at 4000 nM. Turning to `COc1ccc(/C=C\c2cc(OC)c(OC)c(OC)c2)cc1O` [COMBRETASTATIN A4], the IC50 with MCF7 [1] amounted to 8 nM. Take `CCC(=C(c1ccc(O)cc1)c1ccc(OCCNCCCCCCNC(=O)CCCCCNC(=O)CSc2c(Cl)c(Cl)c(C(=O)O)c(C3=c4cc5c(c(S(=O)(=O)O)c4Oc4c3cc3c(c4S(=O)(=O)O)NC(C)(C)CC3C)=NC(C)(C)CC5C)c2Cl)cc1)c1ccccc1` (centres undefined): on Estrogen receptor beta, the IC50 is 240000 nM. `COc1cc(COc2ccc(/C(=C(\C)c3ccccc3)c3ccc(OCCN(C)C)cc3)cc2)c([N+](=O)[O-])cc1OCC(=O)NCCN` yielded a solubility in series [3] of at least 20 µg/mL. In the case of `CC/C(=C(\c1ccc(O)cc1)c1ccc(OCCNC)cc1)c1ccccc1` [ENDOXIFEN], the IC50 in the series on MCF7 [1] came to 29 nM. Molecule `CC/C(=C(\c1ccccc1)c1ccc(OCCN(C)C)cc1)c1ccccc1` [TAMOXIFEN] registered a GI50 in the series with MDA-MB-231 [6] of 240 nM. Further, the IC50 in the series with MCF7 [7] amounted to 12600 nM. In turn, `c1ccc(/C(Cn2cncn2)=C(/c2ccccc2)c2ccc(OCCN3CCN(c4ccc5c(c4)OCO5)CC3)cc2)cc1` showed a GI50 in the series with MDA-MB-231 [6] of 230 nM.
